Assays:
[1] = test system: CA1 region of the hippocampus; assay: Forebrain ischemia assay (bilateral carotid occlusion); format: in vivo, Mongolian gerbil; conditions: 50 mg/kg i.p. 30 minutes prior to carotid occlusion (15 min); 7 days; p<0.01
Experimental: Male Mongolian gerbils, 50-70 gm, were used as subjects. Compound No. 8 (50 mg/kg) was injected i.p. 30 minutes prior to carotid occlusion into 6 gerbils. In preparation for surgical procedures, the animals were lightly anesthetized with halothane and placed upside down on a heated pad with their snout within a nosecone. Nitrous oxide (70%): oxygen (30%) plus 0.5% halothane was circulated through the nosecone to provide continuous anesthesia throughout the surgical procedure. A midline incision was made in the neck and the carotid arteries were exposed. A length of suture thread was placed under each carotid. The thread was then tightened around each carotid and pressure applied to the thread to insure flow as occluded. Flow was occluded for 15 minutes and then the thread was removed. The carotids were visually inspected to confirm that reflow had occurred. The wound was then closed with autoclips and the gerbils allowed to recover. Following surgery, the gerbils were kept alive for 7 days. […] The degree of lesion in the CA1 region of the hippocampus was quantified by counting the pyramidal cell bodies in a 0.5 mm length of CA1 on the section corresponding to P 1.7 mm in the atlas of Loskota, Lnax and Verity [W. J. Loskota et al, A Stereotaxic Atlas of the Mongolian Gerbil Brain, Ann Arbor Science Publishers, Ann Arber, p. […]

[2] = test system: apomorphine-induced climbing; assay: Blockage of apomorphine-induced climbing; format: in vivo, mouse (Swiss-Webster); conditions: 10 mg/kg; apomorphine 2 mg/kg s.c.; i.p. or s.c. pretreatment
Experimental: Compounds of the invention were evaluated for their ability to block apomorphine-induced climbing. The evaluation of the compounds followed the method outlined by Protais [Psychopharmcol., 50, 1-6, 1976]. Swiss-Webstermice, weighing 20-25 g, are pretreated with the compounds of the invention by i.p. or s.c. administration at various times before 2 mg/kg apomorphine is administered s.c. in a volume of 1 ml/kg. All test compounds are administered in a volume of 10 ml/kg. Mice are rated at 10 and 20 minutes after apomorphine administration using the following rating scale: (0) forepaws on the floor, (1) forefeet holding the bars, and (2) four paws holding bars. Dose-response curves are analyzed by a computerized Finney assay [Statistical Methods in Biological Assays, 2nd Edn., Hatner Pub. Co., New York (1964)].

sigma receptors = molecular target: T1, sigma receptors (Cavia porcellus, UniProt Q60492); assay: Radioreceptor assay in guinea pig brain homogenate (P2 membranes), [3H]-(+)-3-PPP; format: binding
T1 construct: crude synaptosomal (P2) membrane fraction of guinea pig brain for sigma receptors; tissue Pel-Freeze, Rogers, Ak; host or cells: guinea pig brain minus cerebellum, crude synaptosomal (P2) membranes
T1 sequence (Q60492 whole entry): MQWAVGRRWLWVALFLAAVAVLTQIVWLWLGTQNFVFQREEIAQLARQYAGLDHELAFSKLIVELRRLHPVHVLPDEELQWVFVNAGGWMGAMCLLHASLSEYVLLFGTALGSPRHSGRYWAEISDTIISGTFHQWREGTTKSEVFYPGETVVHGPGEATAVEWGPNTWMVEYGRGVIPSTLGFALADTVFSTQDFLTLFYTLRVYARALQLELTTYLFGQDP

sigma receptor = molecular target: T2, sigma receptor (Rattus norvegicus, UniProt Q9R0C9); assay: Radioreceptor assay in rat brain homogenate, displacement of [3H]-(+)-3-PPP; format: binding; conditions: rat brain membranes; 2 nM [3H]-(+)-3-PPP; 1 hr, room temperature; units ± SEM; read-out: Ki apparent
T2 construct: Brains from male Sprague-Dawley rats were homogenized; from tissue; host or cells: rat brain crude membranes (male Sprague-Dawley)
T2 sequence (Q9R0C9 whole entry): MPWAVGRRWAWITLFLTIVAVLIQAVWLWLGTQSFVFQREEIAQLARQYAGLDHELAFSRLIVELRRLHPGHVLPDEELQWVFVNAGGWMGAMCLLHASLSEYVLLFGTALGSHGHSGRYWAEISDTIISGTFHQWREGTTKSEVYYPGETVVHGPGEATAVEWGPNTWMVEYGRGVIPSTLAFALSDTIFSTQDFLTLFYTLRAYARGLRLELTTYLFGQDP
Experimental: Acad. Sci., 83, 8784-8788, 1986] to determine the relative potency of the compounds interacting with the sigma receptor. To determine the effects of the compounds in a sigma receptor assay, crude membrane preparations were prepared as follows. Brains from male Sprague-Dawley rats were homogenized in 10 volumes (wt/vol) of 0.32M sucrose, using a Polytron grinder. The homogenate was centrifuged at 900×G for 10 minutes at 4° C. The supernatant was collected and centrifuged at 22,000×g for 20 minutes at 4° C. The pellet was resuspended in 10 volumes of 50 mM Tris/HCl buffer (pH 7.4) and centrifuged at 22,000×g for 20 minutes at 4° C. The pellet was resuspended in 5 mM Tris/HCl buffer (pH 7.4) to give a final concentration of 250 mg/ml of the crude material. Incubation tubes were prepared in triplicate and contained 0.1 ml of tissue suspension, 2 nM of [^3 H]-(+)-1-propyl-3-(3-hydroxyphenyl)piperidine {[^3 H]-3-(+)-PPP}, and varying concentrations of the displacing ligand (0.1-1000 nM) in a final volume of 0.5 ml. After a 1 hr incubation at room temperature, the contents of the test tubes were filtered through GS filter paper which had been presoaked for at least 2 hours in 0.05% polyethyleneamine. The test tubes were rinsed three times with Tris/HCl buffer. Radioactivity on the filters was determined and […] were calculated from inhibition curves using the method of Cheng and Prusoff [Biochem. Pharmacol., 22, 3099-3108, 1973].

Compound: CN(CCc1ccc(Cl)c(Cl)c1)[C@@H]1CCCC[C@@H]1N1CCCC1 [Compound No. 8, 1R,2S-(+)-cis-N-[2-(3,4-dichlorophenyl)ethyl]-N-methyl-2-(1-pyrrolidinyl)cyclohexylamine]
- Cell loss in CA1 region of hippocampus [1]: significantly reduced
- Blockage of apomorphine-induced climbing [2]: completely blocked
- Ki (sigma receptors): 6 ± 3 nM
- Ki (sigma receptor): 20 ± 1 nM
